Source: article PMC8069941, “Potential Anticancer Lipoxygenase Inhibitors from the Red Sea-Derived Brown Algae Sargassum cinereum: An In-Silico-Supported In-Vitro Study” (Antibiotics, 2021)

Tests used:
[1] = target: T1, 5-LOX (Homo sapiens, UniProt P09917); experiment: 5-LOX inhibition assay (human recombinant enzyme kit); type: biochemical
T1 construct: purchased Cayman Chemical 60,402
T1 sequence (P09917 1-674): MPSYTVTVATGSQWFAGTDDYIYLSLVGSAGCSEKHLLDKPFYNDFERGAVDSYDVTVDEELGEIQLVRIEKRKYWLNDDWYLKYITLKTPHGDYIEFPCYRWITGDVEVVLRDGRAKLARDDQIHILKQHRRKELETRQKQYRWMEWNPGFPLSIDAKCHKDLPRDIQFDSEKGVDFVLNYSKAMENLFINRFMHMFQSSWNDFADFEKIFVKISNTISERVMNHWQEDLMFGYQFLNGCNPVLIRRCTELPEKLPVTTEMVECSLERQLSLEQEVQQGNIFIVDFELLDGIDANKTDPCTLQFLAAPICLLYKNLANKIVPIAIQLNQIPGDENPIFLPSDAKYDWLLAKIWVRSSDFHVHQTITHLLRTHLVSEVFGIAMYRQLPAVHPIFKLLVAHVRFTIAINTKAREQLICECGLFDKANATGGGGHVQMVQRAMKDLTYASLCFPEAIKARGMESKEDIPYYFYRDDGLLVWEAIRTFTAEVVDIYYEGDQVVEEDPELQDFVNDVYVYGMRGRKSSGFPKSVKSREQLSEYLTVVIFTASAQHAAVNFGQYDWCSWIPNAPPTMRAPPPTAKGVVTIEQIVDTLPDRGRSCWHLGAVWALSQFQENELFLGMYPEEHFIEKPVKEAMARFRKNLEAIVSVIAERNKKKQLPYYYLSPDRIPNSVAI
Description: The ability of the isolated compounds 12, 13, and 19 to inhibit 5-LOX and 15-LOX enzymes (IC50 and Ki values, µM) was determined using human recombinant enzyme assay kits (catalog no 60,402 and 10011263, Cayman Chemical, Ann Arbor, MI, USA) following manufacturer’s specifications. Stock solutions were freshly prepared before use, and buffer solution (0.1 M Tris-HCl, PH, 7.4) was used. 10 µL of each compound were prepared, dissolved in the least amount of DMSO and diluted with the stock solution to be in concentrations of (0.001, 0.1, 1, 5, 10 µM) in a final volume of […]. The kinetic parameters for both 5-LOX and 15-LOX were determined by measuring the increase in absorbance at 238 nm in an Agilent 8453 diode array spectrophotometer (Agilent Technologies, Santa Clara, CA, USA). Substrate concentration was ranged from 5 to 50 µM. Substrate concentrations (5, 10, 20, 30, 40, 50 µM) were monitored in triplicate for each sample [37]. Doxorubicin was used as a positive control.

[2] = target: T2, 15-LOX (Homo sapiens, UniProt O15296); experiment: 15-LOX inhibition assay (human recombinant enzyme kit); type: biochemical
T2 construct: purchased Cayman Chemical 10011263
T2 sequence (O15296 1-676): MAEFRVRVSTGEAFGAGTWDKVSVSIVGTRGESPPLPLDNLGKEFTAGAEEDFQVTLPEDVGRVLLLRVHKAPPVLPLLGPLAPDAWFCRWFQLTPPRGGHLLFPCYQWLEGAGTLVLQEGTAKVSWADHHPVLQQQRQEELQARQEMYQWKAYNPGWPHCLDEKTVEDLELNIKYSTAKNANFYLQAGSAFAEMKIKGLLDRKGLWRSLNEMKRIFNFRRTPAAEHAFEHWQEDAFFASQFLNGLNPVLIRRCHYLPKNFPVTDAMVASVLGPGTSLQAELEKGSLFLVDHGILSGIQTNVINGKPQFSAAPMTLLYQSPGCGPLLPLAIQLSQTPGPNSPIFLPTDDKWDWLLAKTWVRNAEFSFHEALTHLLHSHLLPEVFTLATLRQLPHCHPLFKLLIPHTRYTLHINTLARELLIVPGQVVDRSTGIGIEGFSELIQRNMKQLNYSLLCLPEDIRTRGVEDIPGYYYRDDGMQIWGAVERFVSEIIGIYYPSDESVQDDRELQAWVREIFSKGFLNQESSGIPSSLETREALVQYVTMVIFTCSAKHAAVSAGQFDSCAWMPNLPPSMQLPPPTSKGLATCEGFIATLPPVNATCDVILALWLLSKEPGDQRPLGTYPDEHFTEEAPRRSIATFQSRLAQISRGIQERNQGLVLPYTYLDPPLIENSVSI
Description: Stock solutions were freshly prepared before use, and buffer solution (0.1 M Tris-HCl, PH, 7.4) was used. 10 µL of each compound were prepared, dissolved in the least amount of DMSO and diluted with the stock solution to be in concentrations of (0.001, 0.1, 1, 5, 10 µM) in a final volume of 210 mL. […] Substrate concentration was ranged from 5 to 50 µM. Substrate concentrations (5, 10, 20, 30, 40, 50 µM) were monitored in triplicate for each sample [37]. Doxorubicin was used as a positive control.

[3] = in vitro, human recombinant enzyme

- Ki ([1]; in vitro inhibition constant): 1.4 ± 0.2 µM
- IC50 [1, 3]: 2.1 ± 0.4 µM
- Ki ([2]; in vitro inhibition constant): 4.2 ± 0.1 µM
- IC50 [2, 3]: 6.7 ± 0.3 µM
Structure (SMILES): CCCCC/C=C\C/C=C\C/C=C\C/C=C\CCCCOCC(O)CO[C@H]1O[C@H](CO)[C@@H](O)[C@H](O)[C@H]1O (stereo partly drawn) [compound 19, 1-O-arachidonyl-3-O-(α-D-glucopyranosyl) glycerol]
